Tested on: obese diabetic mice of the Umeå ob/ob strain
Experiment: Biological activity in obese diabetic ob/ob mice (plasma glucose, insulin, triglycerides; weight gain)
Type: in vivo
Conditions: gavage once daily for 7 days
Procedure: The biological activity of the compound of the invention was tested in obese diabetic mice of the Umea ob/ob strain. Groups of mice received the test compound by gavage once daily for 7 days. On the last day of the experiment the animals were anesthetized 2h after dose in a non-fed state and blood was collected from an incised artery. Plasma was analyzed for concentration of glucose, insulin and triglycerides. A group of untreated obese diabetic mice of the same age served as control. The weight of the mice was measured before and after the experiment and the obtained weight gain was compared to the weight gain of the control animals. The individual values for glucose, insulin and triglyceride levels of the mice from the test group were expressed as the percent rage of the corresponding values from the control group.
The desired “therapeutic effect” was calculated as the average percent reduction of the three variables glucose, insulin and triglycerides below the levels in the control animals. The therapeutic effect of the tested compounds according to the invention was compared to the same effect in the prior art compound troglitazone, administrered by gavage in the oral dose of 100 μmol/kg for 7 days.

CCO[C@@H](Cc1ccc(OCCc2ccc(OS(C)(=O)=O)cc2)cc1)C(=O)O [Example 1, (S)-2-Ethoxy-3-[4-(2-{4-methanesulfonyloxyphenyl}ethoxy)phenyl]propanoic acid]
therapeutic effect (average percent reduction of glucose, insulin and triglycerides below the levels in the control animals) (plasma 2h after last dose, non-fed, compared to troglitazone given in the same oral dose (100 μmol/kg for 7 days)): superior effects | weight gain compared to the weight gain of the control animals (weight measured before and after the experiment): without undesirable weight gain

— patent publication US6660879B2, “3-aryl-2-hydroxypropionic acid derivative I” (AstraZeneca AB, priority 1998, dated 2003)
